System: MV-4-11 cells
Assay: Gene expression microarray analysis (Affymetrix PrimeView) and GSEA
Format: cell-based, human
Set-up: RFU PODN (11730768_x_at) / Fold change /veh PODN (11730768_x_at) / RFU LINC00158 (11744669_a_at) / Fold change /veh LINC00158 (11744669_a_at) / RFU DUSP10 (11751237_a_at) / Fold change /veh DUSP10 (11751237_a_at) / RFU ID3 (11757404_x_at) / Fold change /veh ID3 (11757404_x_at) / RFU PLEKHG5 (11737974_s_at) / Fold change /veh PLEKHG5 (11737974_s_at) / RFU LRRC4B (11730491_at) / Fold change /veh LRRC4B (11730491_at) / RFU GIMAP4 (11747438_a_at) / Fold change /veh GIMAP4 (11747438_a_at) / RFU KRT8 (11758183_x_at) / Fold change /veh KRT8 (11758183_x_at) / RFU CNN1 (11734310_a_at) / Fold change /veh CNN1 (11734310_a_at) / RFU VPS37D (11726825_at) / Fold change /veh VPS37D (11726825_at) / RFU C10orf10 (11716522_x_at) / Fold change /veh C10orf10 (11716522_x_at) / RFU KIR2DL2 /// KIR2DL4 /// KIR2DL5A /// KIR2DL5B /// KIR2DS1 /// KIR2DS2 /// KIR2DS3 /// KIR2DS4 /// KIR3DL3 /// KIR3DL3 /// KIR3DS1 (11738374_at) / Fold change /veh KIR2DL2 /// KIR2DL4 /// KIR2DL5A /// KIR2DL5B /// KIR2DS1 /// KIR2DS2 /// KIR2DS3 /// KIR2DS4 /// KIR3DL3 /// KIR3DL3 /// KIR3DS1 (11738374_at) / RFU C1QL1 (11718748_at) / Fold change /veh C1QL1 (11718748_at) / RFU TMPRSS4 (11747572_a_at) / Fold change /veh TMPRSS4 (11747572_a_at) / RFU HAMP (11756126_x_at) / Fold change /veh HAMP (11756126_x_at) / RFU RNFT2 (11725882_a_at) / Fold change /veh RNFT2 (11725882_a_at) / RFU NR4A2 (11747474_a_at) / Fold change /veh NR4A2 (11747474_a_at) / RFU ABCC12 (11746883_a_at) / Fold change /veh ABCC12 (11746883_a_at) / RFU TMEM136 (11760407_x_at) / Fold change /veh TMEM136 (11760407_x_at) / RFU CLDN22 /// WWC2 (11732394_at) / Fold change /veh CLDN22 /// WWC2 (11732394_at) / RFU HLA-DPB1 (11760878_x_at) / Fold change /veh HLA-DPB1 (11760878_x_at) / RFU SPINT1 (11716480_a_at) / Fold change /veh SPINT1 (11716480_a_at) / RFU GAP43 (11754022_s_at) / Fold change /veh GAP43 (11754022_s_at) / RFU A4GNT (11735810_at) / Fold change /veh A4GNT (11735810_at) / RFU PRB3 (11715151_x_at) / Fold change /veh PRB3 (11715151_x_at) / RFU TUBB4B (11761932_at) / Fold change /veh TUBB4B (11761932_at) / RFU CAPN14 (11732068_a_at) / Fold change /veh CAPN14 (11732068_a_at) / RFU TMCC2 (11721928_a_at) / Fold change /veh TMCC2 (11721928_a_at) / RFU IRGQ (11745062_a_at) / Fold change /veh IRGQ (11745062_a_at) / RFU FAM174B (11720279_a_at) / Fold change /veh FAM174B (11720279_a_at) / RFU TMPRSS4 (11748680_a_at) / Fold change /veh TMPRSS4 (11748680_a_at) / RFU FAM212B (11763350_a_at) / Fold change /veh FAM212B (11763350_a_at) / RFU PLEKHG5 (11743358_a_at) / Fold change /veh PLEKHG5 (11743358_a_at) / RFU ZSCAN30 (11745921_a_at) / Fold change /veh ZSCAN30 (11745921_a_at) / RFU CMKLR1 (11741424_a_at) / Fold change /veh CMKLR1 (11741424_a_at) / RFU LOC101060620 /// MAPK8IP1 (11723275_at) / Fold change /veh LOC101060620 /// MAPK8IP1 (11723275_at) / RFU SPTSSB (11747773_x_at) / Fold change /veh SPTSSB (11747773_x_at) / RFU PRSS12 (11739890_at) / Fold change /veh PRSS12 (11739890_at) / RFU BIN1 (11741810_x_at) / Fold change /veh BIN1 (11741810_x_at) / RFU WNT11 (11732464_a_at) / Fold change /veh WNT11 (11732464_a_at) / RFU C10orf10 (11716521_a_at) / Fold change /veh C10orf10 (11716521_a_at) / RFU C5orf56 (11738089_at) / Fold change /veh C5orf56 (11738089_at) / RFU CYB561 (11721691_x_at) / Fold change /veh CYB561 (11721691_x_at) / RFU ANKRD19P (11752326_a_at) / Fold change /veh ANKRD19P (11752326_a_at) / RFU OR2T12 /// OR2T33 /// OR2T8 (11738714_s_at) / Fold change /veh OR2T12 /// OR2T33 /// OR2T8 (11738714_s_at) / RFU VCAN (11748164_a_at) / Fold change /veh VCAN (11748164_a_at) / RFU JSRP1 (11732532_at) / Fold change /veh JSRP1 (11732532_at) / RFU KRTAP10-11 (11738290_x_at) / Fold change /veh KRTAP10-11 (11738290_x_at) / RFU MYO3A (11730013_a_at) / Fold change /veh MYO3A (11730013_a_at) / RFU EBF3 (11725865_a_at) / Fold change /veh EBF3 (11725865_a_at) / RFU CAMK2N1 (11719241_x_at) / Fold change /veh CAMK2N1 (11719241_x_at) / RFU C5orf56 (11738088_a_at) / Fold change /veh C5orf56 (11738088_a_at) / RFU OLFML3 (11715873_a_at) / Fold change /veh OLFML3 (11715873_a_at) / RFU LOC100653217 /// NTM (11731650_a_at) / Fold change /veh LOC100653217 /// NTM (11731650_a_at) / RFU MAPK11 (11762145_a_at) / Fold change /veh MAPK11 (11762145_a_at) / RFU FIZ1 (11724087_x_at) / Fold change /veh FIZ1 (11724087_x_at) / RFU OASL (11726364_x_at) / Fold change /veh OASL (11726364_x_at) / RFU SOX15 (11748057_x_at) / Fold change /veh SOX15 (11748057_x_at) / RFU CD79A (11719716_a_at) / Fold change /veh CD79A (11719716_a_at) / RFU HIST1H1D (11736915_at) / Fold change /veh HIST1H1D (11736915_at) / RFU CASKIN2 (11723855_a_at) / Fold change /veh CASKIN2 (11723855_a_at) / RFU LOC730098 (11760151_x_at) / Fold change /veh LOC730098 (11760151_x_at) / RFU OR4N2 (11742367_at) / Fold change /veh OR4N2 (11742367_at) / RFU PRRT2 (11749266_a_at) / Fold change /veh PRRT2 (11749266_a_at) / RFU SNX32 (11753110_a_at) / Fold change /veh SNX32 (11753110_a_at) / RFU CDHR5 (11726645_a_at) / Fold change /veh CDHR5 (11726645_a_at) / RFU RCAN1 (11760418_a_at) / Fold change /veh RCAN1 (11760418_a_at) / RFU FAM167A (11723789_a_at) / Fold change /veh FAM167A (11723789_a_at) / RFU FAM26E (11764081_at) / Fold change /veh FAM26E (11764081_at) / RFU ISYNA1 (11749810_s_at) / Fold change /veh ISYNA1 (11749810_s_at) / RFU ACY1 (11761880_at) / Fold change /veh ACY1 (11761880_at) / RFU 11764098_at / Fold change /veh 11764098_at / RFU SAMD14 (11745864_x_at) / Fold change /veh SAMD14 (11745864_x_at) / RFU NPB (11741838_a_at) / Fold change /veh NPB (11741838_a_at) / RFU TMPRSS6 (11731388_a_at) / Fold change /veh TMPRSS6 (11731388_a_at) / RFU KRTAP10-2 (11738614_at) / Fold change /veh KRTAP10-2 (11738614_at) / RFU ARHGAP8 /// PRR5-ARHGAP8 (11727945_x_at) / Fold change /veh ARHGAP8 /// PRR5-ARHGAP8 (11727945_x_at) / RFU KRTAP5-7 /// NADSYN1 (11734609_at) / Fold change /veh KRTAP5-7 /// NADSYN1 (11734609_at) / RFU RASL12 (11751679_a_at) / Fold change /veh RASL12 (11751679_a_at) / RFU CDKN2B (11736163_a_at) / Fold change /veh CDKN2B (11736163_a_at) / RFU PRF1 (11729649_at) / Fold change /veh PRF1 (11729649_at) / RFU, ZNF638 /// ZNF638-IT1 / Fold change vs veh, ZNF638 /// ZNF638-IT1 / RFU, PANK3 / Fold change vs veh, PANK3 / RFU, SH3YL1 / Fold change vs veh, SH3YL1 / RFU, ZEB2 / Fold change vs veh, ZEB2 / RFU, NRIP1 / Fold change vs veh, NRIP1 / RFU, PTTG1IP / Fold change vs veh, PTTG1IP / RFU, CAPN2 / Fold change vs veh, CAPN2 / RFU, MED14 / Fold change vs veh, MED14 / RFU, SNORA58 / Fold change vs veh, SNORA58 / RFU, C1orf63 / Fold change vs veh, C1orf63 / RFU, LRRFIP1 / Fold change vs veh, LRRFIP1 / RFU, NDUFAF7 / Fold change vs veh, NDUFAF7 / RFU, SLC12A2 / Fold change vs veh, SLC12A2 / RFU, IBTK / Fold change vs veh, IBTK / RFU, ESF1 / Fold change vs veh, ESF1 / Fold change vs veh, TMEM50B / RFU, TAOK1 / Fold change vs veh, TAOK1 / RFU, ACBD3 / Fold change vs veh, ACBD3 / RFU, TMA16 / Fold change vs veh, TMA16 / RFU, RWDD3 / Fold change vs veh, RWDD3 / RFU, BCAT1 / Fold change vs veh, BCAT1 / RFU, EDEM3 / Fold change vs veh, EDEM3 / RFU, TMEM33 / Fold change vs veh, TMEM33 / RFU, WDR75 / Fold change vs veh, WDR75 / RFU, AHCTF1 / Fold change vs veh, AHCTF1 / RFU, TFRC / Fold change vs veh, TFRC / RFU, ZDHHC17 / Fold change vs veh, ZDHHC17 / RFU, NOM1 / Fold change vs veh, NOM1 / RFU, ARL8B / Fold change vs veh, ARL8B / RFU, ZBTB11 / Fold change vs veh, ZBTB11 / RFU, TAMM41 / Fold change vs veh, TAMM41 / RFU, KIAA1704 /// LOC100996395 / Fold change vs veh, KIAA1704 /// LOC100996395 / RFU, ING1 / Fold change vs veh, ING1 / RFU, TRMT61B / Fold change vs veh, TRMT61B / RFU, FUBP3 / Fold change vs veh, FUBP3 / RFU, TP53 / Fold change vs veh, TP53 / RFU, TNKS2 / Fold change vs veh, TNKS2 / RFU, ZFP14 / Fold change vs veh, ZFP14 / RFU, ACTR2 / Fold change vs veh, ACTR2 / RFU, PPP3R1 / Fold change vs veh, PPP3R1 / RFU, PIK3R1 / Fold change vs veh, PIK3R1 / RFU, HNRNPA1 / Fold change vs veh, HNRNPA1 / RFU, RNF170 / Fold change vs veh, RNF170 / RFU, ZNF28 / Fold change vs veh, ZNF28 / RFU, RNGTT / Fold change vs veh, RNGTT / RFU, OGT / Fold change vs veh, OGT / RFU, BRD1 / Fold change vs veh, BRD1 / RFU, MARS / Fold change vs veh, MARS / RFU, ZNF655 / Fold change vs veh, ZNF655 / RFU, FAHD1 / Fold change vs veh, FAHD1 / RFU, BDP1 / Fold change vs veh, BDP1 / RFU, LRRCC1 / Fold change vs veh, LRRCC1 / RFU, ARID1A / Fold change vs veh, ARID1A / RFU, ZNF146 / Fold change vs veh, ZNF146 / RFU, ZNF330 / Fold change vs veh, ZNF330 / RFU, GPN3 / Fold change vs veh, GPN3 / RFU, C9orf123 / Fold change vs veh, C9orf123 / RFU, N4BP2L2 / Fold change vs veh, N4BP2L2 / RFU, ARFIP1 / Fold change vs veh, ARFIP1 / RFU, FAM179B / Fold change vs veh, FAM179B / RFU, BCL10 / Fold change vs veh, BCL10 / RFU, UHRF1BP1L / Fold change vs veh, UHRF1BP1L / RFU, BET1 / Fold change vs veh, BET1 / RFU, CNOT2 / Fold change vs veh, CNOT2 / RFU, ZNF268 / Fold change vs veh, ZNF268 / Fold change vs veh, ZNF507 / RFU, DGCR2 / Fold change vs veh, DGCR2 / RFU, WDSUB1 / Fold change vs veh, WDSUB1 / Fold change vs veh, HSP90B1 /// MIR3652 / RFU, ADSS / Fold change vs veh, ADSS / RFU, GK / Fold change vs veh, GK / RFU, ZNF148 / Fold change vs veh, ZNF148 / RFU, TAF9 / Fold change vs veh, TAF9 / RFU, SLC1A5 / Fold change vs veh, SLC1A5 / RFU, SLMO2 / Fold change vs veh, SLMO2 / RFU, ABCC4 / Fold change vs veh, ABCC4 / RFU, LOC101060439 /// RAP1B / Fold change vs veh, LOC101060439 /// RAP1B / RFU, RFX7 / Fold change vs veh, RFX7 / RFU, GTPBP10 / Fold change vs veh, GTPBP10 / RFU, CNEP1R1 / Fold change vs veh, CNEP1R1 / RFU, BIVM-ERCC5 /// ERCC5 / Fold change vs veh, BIVM-ERCC5 /// ERCC5 / RFU, ILF3 / Fold change vs veh, ILF3 / RFU 11762660_at / Fold change /veh 11762660_at / RFU VCAN (11757783_s_at) / Fold change /veh VCAN (11757783_s_at) / RFU DDX43 (11728927_at) / Fold change /veh DDX43 (11728927_at) / RFU KRT8 (11758188_x_at) / Fold change /veh KRT8 (11758188_x_at) / RFU NKD1 (11759106_at) / Fold change /veh NKD1 (11759106_at) / RFU SRD5A1 (11742802_a_at) / Fold change /veh SRD5A1 (11742802_a_at) / RFU TPSAB1 /// TPSB2 (11721975_s_at) / Fold change /veh TPSAB1 /// TPSB2 (11721975_s_at) / RFU GSTM3 (11746129_a_at) / Fold change /veh GSTM3 (11746129_a_at) / RFU IL23R (11737362_x_at) / Fold change /veh IL23R (11737362_x_at) / RFU TMEM51 (11727254_a_at) / Fold change /veh TMEM51 (11727254_a_at) / RFU PIWIL2 (11732686_x_at) / Fold change /veh PIWIL2 (11732686_x_at) / RFU ORM1 (11744905_x_at) / Fold change /veh ORM1 (11744905_x_at) / RFU CCDC152 (11743942_at) / Fold change /veh CCDC152 (11743942_at) / RFU ECM1 (11717891_a_at) / Fold change /veh ECM1 (11717891_a_at) / RFU IL23R (11748794_a_at) / Fold change /veh IL23R (11748794_a_at) / RFU TNFAIP8L3 (11732012_x_at) / Fold change /veh TNFAIP8L3 (11732012_x_at) / RFU MBOAT4 (11741988_at) / Fold change /veh MBOAT4 (11741988_at) / RFU 11764193_at / Fold change /veh 11764193_at / RFU TMEM53 (11763286_at) / Fold change /veh TMEM53 (11763286_at) / RFU MAGEB2 (11727129_at) / Fold change /veh MAGEB2 (11727129_at) / RFU TMEM200A (11744735_a_at) / Fold change /veh TMEM200A (11744735_a_at) / RFU CCDC152 (11751479_a_at) / Fold change /veh CCDC152 (11751479_a_at) / RFU FAM211A (11726209_a_at) / Fold change /veh FAM211A (11726209_a_at) / RFU RGS16 (11746705_a_at) / Fold change /veh RGS16 (11746705_a_at) / RFU VCAN (11755009_s_at) / Fold change /veh VCAN (11755009_s_at) / RFU RHOB (11743442_s_at) / Fold change /veh RHOB (11743442_s_at) / RFU RGS16 (11720943_a_at) / Fold change /veh RGS16 (11720943_a_at) / RFU RGS16 (11720944_at) / Fold change /veh RGS16 (11720944_at) / RFU, VPS4B / Fold change vs veh, VPS4B / RFU, CREB1 / Fold change vs veh, CREB1 / RFU, DNAJC13 / Fold change vs veh, DNAJC13 / RFU, GNAQ / Fold change vs veh, GNAQ / RFU, CDK5R1 / Fold change vs veh, CDK5R1 / RFU, ZRANB3 / Fold change vs veh, ZRANB3 / RFU, CUL4A / Fold change vs veh, CUL4A / RFU, CCNY / Fold change vs veh, CCNY / RFU, UFL1 / Fold change vs veh, UFL1 / RFU, COG3 / Fold change vs veh, COG3 / RFU, DIAPH2 / Fold change vs veh, DIAPH2 / RFU, SKA2 / Fold change vs veh, SKA2 / RFU, AFF3 / Fold change vs veh, AFF3 / RFU, LMF1 / Fold change vs veh, LMF1 / RFU, IPO11 / Fold change vs veh, IPO11 / RFU, DFFB / Fold change vs veh, DFFB / RFU, FOXP1 / Fold change vs veh, FOXP1 / RFU, CARD8 / Fold change vs veh, CARD8 / RFU, STRN3 / Fold change vs veh, STRN3 / RFU, ADK / Fold change vs veh, ADK / RFU, RASSF2 / Fold change vs veh, RASSF2 / RFU, WIPF1 / Fold change vs veh, WIPF1 / RFU, LARP1B / Fold change vs veh, LARP1B / RFU, RASA1 / Fold change vs veh, RASA1 / RFU, RB1 / Fold change vs veh, RB1 / RFU, PPFIA1 / Fold change vs veh, PPFIA1 / RFU, MAT2A / Fold change vs veh, MAT2A / RFU, CCT5 / Fold change vs veh, CCT5 / RFU, WDR92 / Fold change vs veh, WDR92 / RFU, CUX1 / Fold change vs veh, CUX1 / RFU, TTC7A / Fold change vs veh, TTC7A / RFU, TMEM135 / Fold change vs veh, TMEM135 / RFU, DEPTOR / Fold change vs veh, DEPTOR / RFU, CPM / Fold change vs veh, CPM / RFU, DNAJB6 / Fold change vs veh, DNAJB6 / RFU, CACNA2D3 / Fold change vs veh, CACNA2D3 / RFU, DTX4 / Fold change vs veh, DTX4 / RFU, TFCP2 / Fold change vs veh, TFCP2 / RFU, GMCL1 /// GMCL1P1 / Fold change vs veh, GMCL1 /// GMCL1P1 / RFU, AEBP2 / Fold change vs veh, AEBP2 / RFU, SNHG1 /// SNORD22 /// SNORD25 /// SNORD26 /// SNORD27 /// SNORD28 /// SNORD29 /// SNORD31 / Fold change vs veh, SNHG1 /// SNORD22 /// SNORD25 /// SNORD26 /// SNORD27 /// SNORD28 /// SNORD29 /// SNORD31 / Fold change (Aza/veh), C12orf56 (ProbeSet 11735607_a_at) / Fold change (ACY-1035/veh), C12orf56 (ProbeSet 11735607_a_at) / Fold change (Aza/veh), FGFR1OP (ProbeSet 11751329_s_at) / Fold change (ACY-1035/veh), FGFR1OP (ProbeSet 11751329_s_at) / Fold change (Aza/veh), VPS36 (ProbeSet 11739960_a_at) / Fold change (ACY-1035/veh), VPS36 (ProbeSet 11739960_a_at) / RFU SYPL1 (11715823_x_at) / Fold change /veh SYPL1 (11715823_x_at) / RFU IGFBP7 (11715501_s_at) / Fold change /veh IGFBP7 (11715501_s_at) / RFU REEP3 (11722064_at) / Fold change /veh REEP3 (11722064_at) / RFU IGLL1 (11728026_x_at) / Fold change /veh IGLL1 (11728026_x_at): dose or concentration left out as unconfirmed
Details: ProbeSet 11763166_a_at; LIST B

Nc1ncn([C@@H]2O[C@H](CO)[C@@H](O)[C@H]2O)c(=O)n1 [azacitidine] was tested, and the “RFU, MARS” value was 35.99 RFU.

Reference: PMC5218480 (PLoS ONE, 2017)
